Laboratory results taken from patent US11155586B2, “Cystine knot scaffold platform” (Genentech, Inc., priority 2015, dated 2021).
Positions of bridges follow the written chain, without caps; N, C: chain ends. Residues, ends and D or L forms follow the SMILES beside them.

Assays:
[1] = target: hVEGF-A mutants (Y21A, K48A, Q89A, F17A/M81A); assay: SPR binding assay, hVEGF-A mutants; parameters: species or system human; kd: unit not given here
Experimental: (§1) Depending on the format of the assay either a streptavidin sensor (SA) or a dextran-coated (CM5) sensor was utilized as described below.
(§2) For use with the SA sensor, VEGF-A was first biotinylated (no more than 2 biotin/VEGF-A) by incubating the protein with EZ-link NHS-PEG4-Biotin (Pierce) in a 1:1.5 molar ratio respectively, in PBS for 2 hours on ice. Reaction was then quenched by addition of 10 molar excess of Glycine pH 8.0 and the sample was buffer exchanged into PBS using an Amicon 0.5 mL 3000 MWCO ultra-centrifugal filters (EMD Millipore). The biotinylation state of the protein was verified by LC-MS analysis. Biotinylated VEGF-A was then captured on the surface until a resonance unit (RU) signal of about ˜400. For immobilization of VEGF-A on CM5 sensor, the surface was first activated with a mixture of N-ethyl-N′-(3-dimethylaminopropyl)carbodiimide hydrochloride and N-hydroxysuccinimide (EDC/NHS) according to the supplier instructions. VEGF-A was then diluted into coupling buffer (0.1 M Acetate Buffer, pH 5.0) and injected until the signal reached about ˜400 RU followed by a wash with 1 M ethanolamine pH 8.0 to quench remaining activated sites.
(§3) Following the capture step, a series of the peptide concentrations were prepared in HBS-EP buffer with matching DMSO concentrations to 0.1% and injected at a flow rate of […]. The resulting sensorgrams were then analyzed using a 1:1 binding model to obtain kinetic data and affinities using Scrubber 2.0 (BioLogic Software).
The binding interface of VEGF_CKP9.54.90 on VEGF-A overlaps with that of the natural receptors and G6.31 antibody (FIGS. 7 and 8). […] However, K48A mutation enhanced the binding of VEGF_CKP9.54.90 by ˜2-3 fold, a behavior that is similar to that observed with the G6.31 antibody (Fuh et al. (2006) J. Biol. Chem. 281, 6625-6631).

rat VEGF-A = target: T1, rat VEGF-A (Rattus norvegicus, UniProt P16612); assay: SPR binding assay
T1 sequence (P16612 27-139 limits assumed): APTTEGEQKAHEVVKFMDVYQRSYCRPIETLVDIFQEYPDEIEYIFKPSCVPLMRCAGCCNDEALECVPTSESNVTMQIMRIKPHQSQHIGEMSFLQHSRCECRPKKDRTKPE
Experimental: as §1, §2, §3

rabbit VEGF-A = target: T2, rabbit VEGF-A (Oryctolagus cuniculus, UniProt G1T1L9); assay: SPR binding assay
T2 sequence (G1T1L9 1-398): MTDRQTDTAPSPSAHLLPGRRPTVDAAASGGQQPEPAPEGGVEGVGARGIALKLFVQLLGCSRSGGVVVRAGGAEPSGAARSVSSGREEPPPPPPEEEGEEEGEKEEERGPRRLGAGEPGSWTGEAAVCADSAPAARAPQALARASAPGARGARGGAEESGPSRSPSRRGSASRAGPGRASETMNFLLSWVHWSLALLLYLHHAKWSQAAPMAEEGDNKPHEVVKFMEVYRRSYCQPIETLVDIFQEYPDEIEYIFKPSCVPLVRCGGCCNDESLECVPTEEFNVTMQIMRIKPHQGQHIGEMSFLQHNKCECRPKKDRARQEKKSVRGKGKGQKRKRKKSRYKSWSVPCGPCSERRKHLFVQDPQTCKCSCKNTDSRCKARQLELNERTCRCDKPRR
Experimental: as §1, §2, §3

VEGF human 165 = target: T3, VEGF human 165 (Homo sapiens, UniProt P15692); assay: SPR binding assay
T3 sequence (P15692 27-191 isoform P15692-4): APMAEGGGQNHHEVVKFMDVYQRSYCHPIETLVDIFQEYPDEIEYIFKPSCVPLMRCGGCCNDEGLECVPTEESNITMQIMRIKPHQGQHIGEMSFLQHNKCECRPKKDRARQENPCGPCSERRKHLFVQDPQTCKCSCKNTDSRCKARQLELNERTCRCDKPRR
Experimental: as §1, §2, §3

VEGF mouse 164 = target: T4, VEGF mouse 164 (Mus musculus, UniProt Q00731); assay: SPR binding assay
T4 sequence (Q00731 27-190 isoform Q00731-2): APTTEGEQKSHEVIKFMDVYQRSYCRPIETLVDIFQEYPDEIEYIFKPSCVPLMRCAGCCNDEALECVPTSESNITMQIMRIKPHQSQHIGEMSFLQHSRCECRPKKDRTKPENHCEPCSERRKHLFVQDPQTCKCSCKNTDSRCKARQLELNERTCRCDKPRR
Experimental: as §1, §2, §3

trypsin = assay: Trypsin protease activity, peptide substrate cleavage assay; assay type: biochemical; settings: FIG. 3
VEGF-A and KDR = target: T5, VEGF-A and KDR (Homo sapiens, UniProt P15692); assay: Competition ELISA, KDR-VEGF interaction; assay type: binding
T5 sequence (P15692 207-395): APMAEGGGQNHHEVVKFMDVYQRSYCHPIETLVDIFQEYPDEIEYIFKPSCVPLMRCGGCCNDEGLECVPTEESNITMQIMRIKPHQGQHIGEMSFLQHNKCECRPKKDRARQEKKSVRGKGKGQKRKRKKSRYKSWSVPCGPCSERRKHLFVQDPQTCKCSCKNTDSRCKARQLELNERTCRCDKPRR
Experimental: Binding specificity of each peptide was established by competition ELISA. […] After blocking with block buffer (PBS with 0.5% BSA and 0.05% TWEEN®20) for 2 hours at room temperature, the receptor-Fc fusions or biotinylated receptors were serially diluted using assay buffer (PBS with 0.5% BSA and 0.05% TWEEN®20) and incubated for 1 hour at room temperature. […] Competition ELISA was conducted in an identical fashion as described above except after blocking, a mixture of serially diluted peptide containing a constant concentration of receptor-Fc fusion or biotinylated receptor (concentration of receptor was set to EC60) was added and incubated for 1 hour. All recombinant human proteins and antibodies were purchased from R &D Systems (Minneapolis, Minn.).

## CC[C@H](C)[C@@H]1NC(=O)[C@H](CC(N)=O)NC(=O)[C@@H](NC(=O)CN)CSSC[C@@H](C(=O)N[C@H](C(=O)N[C@H]2CSSC[C@@H](C(=O)NCC(=O)O)NC(=O)[C@H](CO)NC(=O)[C@H](CCC(N)=O)NC(=O)[C@H](Cc3ccc(O)cc3)NC(=O)[C@H](Cc3ccc(O)cc3)NC(=O)[C@H](CCC(N)=O)NC2=O)C(C)C)NC(=O)CNC(=O)[C@H](C)NC(=O)[C@H](CC(C)C)NC(=O)[C@@H]2CSSC[C@H](NC(=O)CNC(=O)[C@H](Cc3c[nH]c4ccccc34)NC(=O)[C@H](Cc3ccccc3)NC(=O)[C@@H]3CCCN3C(=O)[C@H](CC(C)C)NC(=O)[C@H](CCSC)NC1=O)C(=O)N[C@@H](CCCCN)C(=O)N[C@@H](CCC(N)=O)C(=O)N[C@@H](CC(=O)O)C(=O)N[C@@H](CO)C(=O)N[C@@H](CC(=O)O)C(=O)N2 [VEGF_CKP9.54] (H-GCNIMLPFWGCKQDSDCLAGCVCQYYQSCG-OH; disulfide 2-21, 11-17, 23-29 (inferred); N-terminus and C-terminus assumed)
[1]; hVEGF-A mutant K48A
  Kd: 0.022 µM
  ka: 2.64 × 10^6
  kd: 0.0587
[1]; hVEGF-A mutant Q89A
  Kd: 1.88 µM
  ka: 3.37 × 10^5
  kd: 0.7932
[1]; hVEGF-A mutant Y21A
  Kd: 0.317 µM
  ka: 6.63 × 10^5
  kd: 0.2101
Rat VEGF-A
  Kd: 0.176 µM
Rat VEGF-A; rat, Table 30
  ka: 1.93 × 10^6
  kd: 2.96 × 10^−1
Rabbit VEGF-A
  Kd: 0.133 µM
Rabbit VEGF-A; rabbit, Table 30
  ka: 2.10 × 10^6
  kd: 2.74 × 10^−1
VEGF human 165
  Kd: 0.19 µM
VEGF human 165; human 165, Table 30
  ka: 8.23 × 10^5
  kd: 1.49 × 10^−1
VEGF mouse 164
  Kd: 0.25 µM
VEGF mouse 164; mouse 164, Table 30
  ka: 8.26 × 10^5
  kd: 2.07 × 10^−1
trypsin
  inhibition of trypsin protease activity: do not inhibit
VEGF-A and KDR
  IC50: 0.0058 µM
